The target of test [1] is T1, AuroraA-TPX2 (Homo sapiens, UniProt O14965).
T1 construct: 20 µL of AuroraA-TPX2 KD GST; GST
T1 sequence (O14965 133-383 limits assumed): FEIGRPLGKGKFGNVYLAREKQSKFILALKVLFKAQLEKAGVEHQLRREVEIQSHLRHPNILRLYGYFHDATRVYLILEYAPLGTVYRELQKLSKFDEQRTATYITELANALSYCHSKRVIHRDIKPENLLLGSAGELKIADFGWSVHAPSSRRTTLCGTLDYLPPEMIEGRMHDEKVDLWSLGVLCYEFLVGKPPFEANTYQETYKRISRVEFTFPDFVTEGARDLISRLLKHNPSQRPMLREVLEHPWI
T1 sequence (Q9ULW0 1-43 partner limits assumed): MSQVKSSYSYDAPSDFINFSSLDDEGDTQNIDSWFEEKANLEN
The experiment in a line: AuroraA-TPX2 Homogeneous Time Resolved Fluorescent (HTRF) kinase assay. Format: biochemical. The settings on record: average, read-out: AurA/TP X2_ IC50_IP (Avg). In short, it runs like this: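 HTRF read-out: europium anti-phosphoPLK antibody (0.02 nM) plus streptavidin-APC detect phosphorylated biotin-PLK after EDTA stop and overnight equilibration. Kinase step runs about 120 min with Aurora-A/TPX2, ATP and roughly 1 µM PLK peptide at pH 7.5 HEPES buffer with Mg2+ and DTT.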
For orientation: In TR-FRET formats the signal depends on donor and acceptor labels being close together.

Test [2] concerns the target T2, AuroraB (Homo sapiens, UniProt Q96GD4).
T2 construct: 20 µL of AuroraB FL His; His
The experiment in a line: AuroraB Homogeneous Time Resolved Fluorescent (HTRF) kinase assay. The note with it: average, read-out: AurB_ _IC50_IP (Avg). In kind it is biochemical. In short, it runs like this:
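HTRF read-out: after EDTA stop and ~60 min with europium anti-phospho-H3 antibody and streptavidin-APC, 655/615 nm ratio reports phosphorylation. Reaction: 400 pM AuroraB FL His, 23 µM ATP (at Km(app)), 0.1 µM biotin-Histone H3 peptide, 50 mM HEPES pH 7.5, MgCl/MnCl, ~90 min.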

Where [3] appears, read: given as numbers, unit inferred.

For 20 molecules, IC50 results are on record in patent EP1984353B1, “AURORA KINASE MODULATORS AND METHOD OF USE” (Amgen, Inc, priority 2006, dated 2007).

The structures appear in SMILES notation. pIC50: −log10 of the molar value. Where two headings read alike, the source gives them in different places.

T2 sequence (Q96GD4 whole entry): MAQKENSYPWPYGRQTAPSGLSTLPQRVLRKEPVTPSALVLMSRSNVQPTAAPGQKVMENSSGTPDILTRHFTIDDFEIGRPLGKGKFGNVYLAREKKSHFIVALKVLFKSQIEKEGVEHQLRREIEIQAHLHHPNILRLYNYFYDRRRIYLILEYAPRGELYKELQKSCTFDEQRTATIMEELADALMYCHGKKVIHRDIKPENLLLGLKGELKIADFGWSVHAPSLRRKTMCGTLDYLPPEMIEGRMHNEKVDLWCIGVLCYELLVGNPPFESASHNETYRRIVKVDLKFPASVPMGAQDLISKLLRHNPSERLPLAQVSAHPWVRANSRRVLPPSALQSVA

For the molecule `CCOc1ccccc1-c1nnc(Nc2ccc(Oc3ncccc3-c3ccnc(N)n3)cc2)c2ccccc12` [compound 322, N-(4-((3-(2-amino-4-pyrimidinyl)-2-pyridinyl)oxy)phenyl)-4-(2-(ethyloxy)phenyl)-1-phthalazinamine], the pIC50 in test [1] (given as class symbols) and in test [2] (given as class symbols) was at least 7.00 in each case.

Turning to `CN1CCN(CCCNc2nccc(-c3cccnc3Oc3ccc(Nc4nnc(-c5ccccn5)c5ccccc45)cc3)n2)CC1` [compound 323, N-(4-((3-(2-((3-(4-methyl-1-piperazinyl)propyl)amino)-4-pyrimidinyl)-2-pyridinyl)oxy)phenyl)-4-(2-pyridinyl)-1-phthalazinamine], the results for the pIC50 in test [1] (given as class symbols) and in test [2] (given as class symbols) were 6.30 to 7.00 and at least 7.00, respectively.

Regarding `CN(C)C1CCN(CCCNc2nccc(-c3cccnc3Oc3ccc(Nc4nnc(-c5ccccc5)c5ccccc45)cc3)n2)C1` (stereo not shown) [compound 324, N-(4-((3-(2-((3-(3-(dimethylamino)-1-pyrrolidinyl)propyl)amino)-4-pyrimidinyl)-2-pyridinyl)oxy)phenyl)-4-phenyl-1-phthalazinamine], the pIC50 in test [1] (given as class symbols) and in test [2] (given as class symbols) was at least 7.00 in each case.

As for `CC1CN(CCCNc2nccc(-c3cccnc3Oc3ccc(Nc4nnc(-c5ccccc5)c5ccccc45)cc3)n2)CC(C)O1` (stereo not shown) [compound 326, N-(4-((3-(2-((3-(2,6-dimethyl-4-morpholinyl)propyl)amino)-4-pyrimidinyl)-2-pyridinyl)oxy)phenyl)-4-phenyl-1-phthalazinamine], the pIC50 in test [1] (given as class symbols) and in test [2] (given as class symbols) was at least 7.00 each time.

`O=C(O)CCNc1nccc(-c2cccnc2Oc2ccc(Nc3nnc(-c4ccccc4)c4ccccc34)cc2)n1` [compound 327, N-(4-(2-((4-((4-phenyl-1-phthalazinyl)amino)phenyl)oxy)-3-pyridinyl)-2-pyrimidinyl)-beta-alanine]: the results for the pIC50 in test [1] (given as class symbols) and in test [2] (given as class symbols) were 6.30 to 7.00 and 5.60 to 6.30, respectively.

With `C[C@H]1CN(CCCNc2nccc(-c3cccnc3Oc3ccc(Nc4nnc(-c5ccccc5)c5ccccc45)cc3)n2)[C@@H](C)CO1` [compound 328, N-(4-((3-(2-((3-((2S,5S)-2,5-dimethyl-4-morpholinyl)propyl)amino)-4-pyrimidinyl)-2-pyridinyl)oxy)phenyl)-4-phenyl-1-phthalazinamine], the results for the pIC50 in test [1] (setting [3]) and in test [2] (setting [3]) were 7.19 and 8.37, respectively.

As for `Nc1nccc(-c2cccnc2Oc2ccc(Nc3nnc(-c4cccc(COP(=O)(O)O)c4)c4ccccc34)cc2)n1` [compound 351, (3-(4-((4-((3-(2-amino-4-pyrimidinyl)-2-pyrldinyl)oxy)phenyl)amino)-1-phthalazinyl)pbenyl)methyl dihydrogen phosphate], the pIC50 in test [1] (given as class symbols) was 6.30 to 7.00; in test [2] (given as class symbols) it was at least 7.00.

In the case of `Nc1nccc(-c2cccnc2Oc2ccc(Nc3nnc(N4CCCC(CO)C4)c4ccccc34)cc2)n1` (stereo not shown) [compound 352, (1-(4-((4-((3-(2-amino-4-pyrimidinyl)-2-pyridinyl)oxy)phenyl)amino)-1-phthalazinyl)-3-piperidinyl)methanol], the pIC50 in test [1] (given as class symbols) and in test [2] (given as class symbols) was at least 7.00 each time.

For `Nc1nccc(-c2cccnc2Oc2ccc(Nc3nnc(N4CCCC(O)C4)c4ccccc34)cc2)n1` (stereo not shown) [compound 354, 1-(4-((4-((3-(2-amino-4-pyrimidinyl)-2-pyridinyl)oxy)phenyl)amino)-1-phthalazinyl)-3-piperidinol], the pIC50 in test [1] (setting [3]) was 7.06; in test [2] (setting [3]), 7.59.

Regarding `Nc1nccc(-c2cccnc2Oc2ccc(Nc3nnc(-c4cccc(CCO)c4)c4ccccc34)cc2)n1` [compound 355, 2-(3-(4-((4-((3-(2-amino-4-pyrimidinyl)-2-pyridinyl)oxy)phenyl)amino)-1-phthalazinyl)phenyl)ethanol], the pIC50 in test [1] (given as class symbols) and in test [2] (given as class symbols) was at least 7.00 each time.

Consider `Nc1nccc(-c2cccnc2Oc2ccc(Nc3nnc(-c4ccccn4)c4ccccc34)cc2)n1` [compound 356, N-(4-((3-(2-amino-4-pyrimidinyl)-2-pyridinyl)oxy)phenyl)-4-(2-pyridinyl)-1-phthalazinamine], for which the pIC50 in test [1] (given as class symbols) and in test [2] (given as class symbols) was at least 7.00 throughout.

As to `CC(C)(O)c1cccc(-c2nnc(Nc3ccc(Oc4ncccc4-c4ccnc(N)n4)cc3)c3ccccc23)c1` [compound 357, 2-(3-(4-((4-((3-(2-amino-4-pyrimidinyl)-2-pyridinyl)oxy)phenyl)amino)-1-phthalazinyl)phenyl)-2-propanol], the pIC50 in test [1] (given as class symbols) and in test [2] (given as class symbols) was at least 7.00 each time.

As to `Nc1nccc(-c2cccnc2Oc2ccc(Nc3nnc(N4CCC(O)CC4)c4ccccc34)cc2)n1` [compound 358, 1-(4-((4-((3-(2-amino-4-pyrimidinyl)-2-pyridinyl)oxy)phenyl)amino)-1-phthalazinyl)-4-piperidinol], the values for the pIC50 in test [1] (given as class symbols) and in test [2] (given as class symbols) were 5.60 to 6.30 and at least 7.00, respectively.

On to `Cc1csc(-c2nnc(Nc3ccc(Oc4ncccc4-c4ccnc(NCCCO)n4)cc3)c3ccccc23)n1` [compound 359, 3-((4-(2-((4-((4-(4-methyl-1,3-thiazol-2-yl)-1-phthalazinyl)amino)phenyl)oxy)-3-pyridinyl)-2-pyrimidinyl)amino)-1-propanol], for which the pIC50 in test [1] (given as class symbols) and in test [2] (given as class symbols) was at least 7.00 in each case.

With `C[C@H](O)c1cccc(-c2nnc(Nc3ccc(Oc4ncccc4-c4ccnc(N)n4)cc3)c3ccccc23)c1` [compound 360, (1S)-1-(3-(4-((4-((3-(2-amino-4-pyrimidinyl)-2-pyridinyl)oxy)phenyl)amino)-1-phthalazinyl)phenyl)ethanol], the pIC50 in test [1] (given as class symbols) and in test [2] (given as class symbols) was at least 7.00 in each case.

`C[C@@H](O)c1cccc(-c2nnc(Nc3ccc(Oc4ncccc4-c4ccnc(N)n4)cc3)c3ccccc23)c1` [compound 361, (1R)-1-(3-(4-((4-((3-(2-amino-4-pyrimidinyl)-2-pyridinyl)oxy)phenyl)amino)-1-phthalazinyl)phenyl)ethanol]: the pIC50 in test [1] (given as class symbols) and in test [2] (given as class symbols) was at least 7.00 in each case.

`Nc1nccc(-c2cccnc2Oc2ccc(Nc3nnc(-c4cccc(CCCOP(=O)(O)O)c4)c4ccccc34)cc2)n1` [compound 362, 3-(3-(4-((4-((3-(2-amino-4-pyrimidinyl)-2-pyridinyl)oxy)phenyl)amino)-1-phthalazinyl)phenyl)propyl dihydrogen phosphate]: the pIC50 in test [1] (given as class symbols) and in test [2] (given as class symbols) was at least 7.00 in each case.

Take `Nc1nccc(-c2cccnc2Oc2ccc(Nc3nnc(-c4cccc(O)c4)c4ccccc34)cn2)n1` [compound 363, 3-(4-((6-((3-(2-amino-4-pyrimidinyl)-2-pyridinyl)oxy)-3-pyridinyl)amino)-1-phthalazinyl)phenol]: the pIC50 in test [1] (given as class symbols) and in test [2] (given as class symbols) was at least 7.00 each time.

Turning to `Nc1nccc(-c2cccnc2Oc2ccc(Nc3nnc(-c4ccccc4O)c4ccccc34)cc2)n1` [compound 364, 2-(4-((4-((3-(2-amino-4-pyrimidinyl)-2-pyridinyl)oxy)phenyl)amino)-1-phthalazinyl)phenol], the pIC50 in test [1] (given as class symbols) is 6.30 to 7.00; in test [2] (given as class symbols), at least 7.00.

As for `Nc1nccc(-c2cccnc2Oc2ccc(Nc3nnc(-c4ccccc4O)c4ccccc34)cn2)n1` [compound 365, 2-(4-((6-((3-(2-amino-4-pyrimidinyl)-2-pyridinyl)oxy)-3-pyridinyl)amino)-1-phthalazinyl)phenol], the pIC50 in test [1] (setting [3]) was 7.56; in test [2] (setting [3]), 7.95.
